From article PMC5218480 (PLoS ONE, 2017)

System: MV-4-11 cells
Experiment: Gene expression microarray analysis (Affymetrix PrimeView) and GSEA
Format: cell-based, human
Parameters: RFU PODN (11730768_x_at) / Fold change /veh PODN (11730768_x_at) / RFU LINC00158 (11744669_a_at) / Fold change /veh LINC00158 (11744669_a_at) / RFU DUSP10 (11751237_a_at) / Fold change /veh DUSP10 (11751237_a_at) / RFU ID3 (11757404_x_at) / Fold change /veh ID3 (11757404_x_at) / RFU PLEKHG5 (11737974_s_at) / Fold change /veh PLEKHG5 (11737974_s_at) / RFU LRRC4B (11730491_at) / Fold change /veh LRRC4B (11730491_at) / RFU GIMAP4 (11747438_a_at) / Fold change /veh GIMAP4 (11747438_a_at) / RFU KRT8 (11758183_x_at) / Fold change /veh KRT8 (11758183_x_at) / RFU CNN1 (11734310_a_at) / Fold change /veh CNN1 (11734310_a_at) / RFU VPS37D (11726825_at) / Fold change /veh VPS37D (11726825_at) / RFU C10orf10 (11716522_x_at) / Fold change /veh C10orf10 (11716522_x_at) / RFU KIR2DL2 /// KIR2DL4 /// KIR2DL5A /// KIR2DL5B /// KIR2DS1 /// KIR2DS2 /// KIR2DS3 /// KIR2DS4 /// KIR3DL3 /// KIR3DL3 /// KIR3DS1 (11738374_at) / Fold change /veh KIR2DL2 /// KIR2DL4 /// KIR2DL5A /// KIR2DL5B /// KIR2DS1 /// KIR2DS2 /// KIR2DS3 /// KIR2DS4 /// KIR3DL3 /// KIR3DL3 /// KIR3DS1 (11738374_at) / RFU C1QL1 (11718748_at) / Fold change /veh C1QL1 (11718748_at) / RFU TMPRSS4 (11747572_a_at) / Fold change /veh TMPRSS4 (11747572_a_at) / RFU HAMP (11756126_x_at) / Fold change /veh HAMP (11756126_x_at) / RFU RNFT2 (11725882_a_at) / Fold change /veh RNFT2 (11725882_a_at) / RFU NR4A2 (11747474_a_at) / Fold change /veh NR4A2 (11747474_a_at) / RFU ABCC12 (11746883_a_at) / Fold change /veh ABCC12 (11746883_a_at) / RFU TMEM136 (11760407_x_at) / Fold change /veh TMEM136 (11760407_x_at) / RFU CLDN22 /// WWC2 (11732394_at) / Fold change /veh CLDN22 /// WWC2 (11732394_at) / RFU HLA-DPB1 (11760878_x_at) / Fold change /veh HLA-DPB1 (11760878_x_at) / RFU SPINT1 (11716480_a_at) / Fold change /veh SPINT1 (11716480_a_at) / RFU GAP43 (11754022_s_at) / Fold change /veh GAP43 (11754022_s_at) / RFU A4GNT (11735810_at) / Fold change /veh A4GNT (11735810_at) / RFU PRB3 (11715151_x_at) / Fold change /veh PRB3 (11715151_x_at) / RFU TUBB4B (11761932_at) / Fold change /veh TUBB4B (11761932_at) / RFU CAPN14 (11732068_a_at) / Fold change /veh CAPN14 (11732068_a_at) / RFU TMCC2 (11721928_a_at) / Fold change /veh TMCC2 (11721928_a_at) / RFU IRGQ (11745062_a_at) / Fold change /veh IRGQ (11745062_a_at) / RFU FAM174B (11720279_a_at) / Fold change /veh FAM174B (11720279_a_at) / RFU TMPRSS4 (11748680_a_at) / Fold change /veh TMPRSS4 (11748680_a_at) / RFU FAM212B (11763350_a_at) / Fold change /veh FAM212B (11763350_a_at) / RFU PLEKHG5 (11743358_a_at) / Fold change /veh PLEKHG5 (11743358_a_at) / RFU ZSCAN30 (11745921_a_at) / Fold change /veh ZSCAN30 (11745921_a_at) / RFU CMKLR1 (11741424_a_at) / Fold change /veh CMKLR1 (11741424_a_at) / RFU LOC101060620 /// MAPK8IP1 (11723275_at) / Fold change /veh LOC101060620 /// MAPK8IP1 (11723275_at) / RFU SPTSSB (11747773_x_at) / Fold change /veh SPTSSB (11747773_x_at) / RFU PRSS12 (11739890_at) / Fold change /veh PRSS12 (11739890_at) / RFU BIN1 (11741810_x_at) / Fold change /veh BIN1 (11741810_x_at) / RFU WNT11 (11732464_a_at) / Fold change /veh WNT11 (11732464_a_at) / RFU C10orf10 (11716521_a_at) / Fold change /veh C10orf10 (11716521_a_at) / RFU C5orf56 (11738089_at) / Fold change /veh C5orf56 (11738089_at) / RFU CYB561 (11721691_x_at) / Fold change /veh CYB561 (11721691_x_at) / RFU ANKRD19P (11752326_a_at) / Fold change /veh ANKRD19P (11752326_a_at) / RFU OR2T12 /// OR2T33 /// OR2T8 (11738714_s_at) / Fold change /veh OR2T12 /// OR2T33 /// OR2T8 (11738714_s_at) / RFU VCAN (11748164_a_at) / Fold change /veh VCAN (11748164_a_at) / RFU JSRP1 (11732532_at) / Fold change /veh JSRP1 (11732532_at) / RFU KRTAP10-11 (11738290_x_at) / Fold change /veh KRTAP10-11 (11738290_x_at) / RFU MYO3A (11730013_a_at) / Fold change /veh MYO3A (11730013_a_at) / RFU EBF3 (11725865_a_at) / Fold change /veh EBF3 (11725865_a_at) / RFU CAMK2N1 (11719241_x_at) / Fold change /veh CAMK2N1 (11719241_x_at) / RFU C5orf56 (11738088_a_at) / Fold change /veh C5orf56 (11738088_a_at) / RFU OLFML3 (11715873_a_at) / Fold change /veh OLFML3 (11715873_a_at) / RFU LOC100653217 /// NTM (11731650_a_at) / Fold change /veh LOC100653217 /// NTM (11731650_a_at) / RFU MAPK11 (11762145_a_at) / Fold change /veh MAPK11 (11762145_a_at) / RFU FIZ1 (11724087_x_at) / Fold change /veh FIZ1 (11724087_x_at) / RFU OASL (11726364_x_at) / Fold change /veh OASL (11726364_x_at) / RFU SOX15 (11748057_x_at) / Fold change /veh SOX15 (11748057_x_at) / RFU CD79A (11719716_a_at) / Fold change /veh CD79A (11719716_a_at) / RFU HIST1H1D (11736915_at) / Fold change /veh HIST1H1D (11736915_at) / RFU CASKIN2 (11723855_a_at) / Fold change /veh CASKIN2 (11723855_a_at) / RFU LOC730098 (11760151_x_at) / Fold change /veh LOC730098 (11760151_x_at) / RFU OR4N2 (11742367_at) / Fold change /veh OR4N2 (11742367_at) / RFU PRRT2 (11749266_a_at) / Fold change /veh PRRT2 (11749266_a_at) / RFU SNX32 (11753110_a_at) / Fold change /veh SNX32 (11753110_a_at) / RFU CDHR5 (11726645_a_at) / Fold change /veh CDHR5 (11726645_a_at) / RFU RCAN1 (11760418_a_at) / Fold change /veh RCAN1 (11760418_a_at) / RFU FAM167A (11723789_a_at) / Fold change /veh FAM167A (11723789_a_at) / RFU FAM26E (11764081_at) / Fold change /veh FAM26E (11764081_at) / RFU ISYNA1 (11749810_s_at) / Fold change /veh ISYNA1 (11749810_s_at) / RFU ACY1 (11761880_at) / Fold change /veh ACY1 (11761880_at) / RFU 11764098_at / Fold change /veh 11764098_at / RFU SAMD14 (11745864_x_at) / Fold change /veh SAMD14 (11745864_x_at) / RFU NPB (11741838_a_at) / Fold change /veh NPB (11741838_a_at) / RFU TMPRSS6 (11731388_a_at) / Fold change /veh TMPRSS6 (11731388_a_at) / RFU KRTAP10-2 (11738614_at) / Fold change /veh KRTAP10-2 (11738614_at) / RFU ARHGAP8 /// PRR5-ARHGAP8 (11727945_x_at) / Fold change /veh ARHGAP8 /// PRR5-ARHGAP8 (11727945_x_at) / RFU KRTAP5-7 /// NADSYN1 (11734609_at) / Fold change /veh KRTAP5-7 /// NADSYN1 (11734609_at) / RFU RASL12 (11751679_a_at) / Fold change /veh RASL12 (11751679_a_at) / RFU CDKN2B (11736163_a_at) / Fold change /veh CDKN2B (11736163_a_at) / RFU PRF1 (11729649_at) / Fold change /veh PRF1 (11729649_at) / RFU, ZNF638 /// ZNF638-IT1 / Fold change vs veh, ZNF638 /// ZNF638-IT1 / RFU, PANK3 / Fold change vs veh, PANK3 / RFU, SH3YL1 / Fold change vs veh, SH3YL1 / RFU, ZEB2 / Fold change vs veh, ZEB2 / RFU, NRIP1 / Fold change vs veh, NRIP1 / RFU, PTTG1IP / Fold change vs veh, PTTG1IP / RFU, CAPN2 / Fold change vs veh, CAPN2 / RFU, MED14 / Fold change vs veh, MED14 / RFU, SNORA58 / Fold change vs veh, SNORA58 / RFU, C1orf63 / Fold change vs veh, C1orf63 / RFU, LRRFIP1 / Fold change vs veh, LRRFIP1 / RFU, NDUFAF7 / Fold change vs veh, NDUFAF7 / RFU, SLC12A2 / Fold change vs veh, SLC12A2 / RFU, IBTK / Fold change vs veh, IBTK / RFU, ESF1 / Fold change vs veh, ESF1 / Fold change vs veh, TMEM50B / RFU, TAOK1 / Fold change vs veh, TAOK1 / RFU, ACBD3 / Fold change vs veh, ACBD3 / RFU, TMA16 / Fold change vs veh, TMA16 / RFU, RWDD3 / Fold change vs veh, RWDD3 / RFU, BCAT1 / Fold change vs veh, BCAT1 / RFU, EDEM3 / Fold change vs veh, EDEM3 / RFU, TMEM33 / Fold change vs veh, TMEM33 / RFU, WDR75 / Fold change vs veh, WDR75 / RFU, AHCTF1 / Fold change vs veh, AHCTF1 / RFU, TFRC / Fold change vs veh, TFRC / RFU, ZDHHC17 / Fold change vs veh, ZDHHC17 / RFU, NOM1 / Fold change vs veh, NOM1 / RFU, ARL8B / Fold change vs veh, ARL8B / RFU, ZBTB11 / Fold change vs veh, ZBTB11 / RFU, TAMM41 / Fold change vs veh, TAMM41 / RFU, KIAA1704 /// LOC100996395 / Fold change vs veh, KIAA1704 /// LOC100996395 / RFU, ING1 / Fold change vs veh, ING1 / RFU, TRMT61B / Fold change vs veh, TRMT61B / RFU, FUBP3 / Fold change vs veh, FUBP3 / RFU, TP53 / Fold change vs veh, TP53 / RFU, TNKS2 / Fold change vs veh, TNKS2 / RFU, ZFP14 / Fold change vs veh, ZFP14 / RFU, ACTR2 / Fold change vs veh, ACTR2 / RFU, PPP3R1 / Fold change vs veh, PPP3R1 / RFU, PIK3R1 / Fold change vs veh, PIK3R1 / RFU, HNRNPA1 / Fold change vs veh, HNRNPA1 / RFU, RNF170 / Fold change vs veh, RNF170 / RFU, ZNF28 / Fold change vs veh, ZNF28 / RFU, RNGTT / Fold change vs veh, RNGTT / RFU, OGT / Fold change vs veh, OGT / RFU, BRD1 / Fold change vs veh, BRD1 / RFU, MARS / Fold change vs veh, MARS / RFU, ZNF655 / Fold change vs veh, ZNF655 / RFU, FAHD1 / Fold change vs veh, FAHD1 / RFU, BDP1 / Fold change vs veh, BDP1 / RFU, LRRCC1 / Fold change vs veh, LRRCC1 / RFU, ARID1A / Fold change vs veh, ARID1A / RFU, ZNF146 / Fold change vs veh, ZNF146 / RFU, ZNF330 / Fold change vs veh, ZNF330 / RFU, GPN3 / Fold change vs veh, GPN3 / RFU, C9orf123 / Fold change vs veh, C9orf123 / RFU, N4BP2L2 / Fold change vs veh, N4BP2L2 / RFU, ARFIP1 / Fold change vs veh, ARFIP1 / RFU, FAM179B / Fold change vs veh, FAM179B / RFU, BCL10 / Fold change vs veh, BCL10 / RFU, UHRF1BP1L / Fold change vs veh, UHRF1BP1L / RFU, BET1 / Fold change vs veh, BET1 / RFU, CNOT2 / Fold change vs veh, CNOT2 / RFU, ZNF268 / Fold change vs veh, ZNF268 / Fold change vs veh, ZNF507 / RFU, DGCR2 / Fold change vs veh, DGCR2 / RFU, WDSUB1 / Fold change vs veh, WDSUB1 / Fold change vs veh, HSP90B1 /// MIR3652 / RFU, ADSS / Fold change vs veh, ADSS / RFU, GK / Fold change vs veh, GK / RFU, ZNF148 / Fold change vs veh, ZNF148 / RFU, TAF9 / Fold change vs veh, TAF9 / RFU, SLC1A5 / Fold change vs veh, SLC1A5 / RFU, SLMO2 / Fold change vs veh, SLMO2 / RFU, ABCC4 / Fold change vs veh, ABCC4 / RFU, LOC101060439 /// RAP1B / Fold change vs veh, LOC101060439 /// RAP1B / RFU, RFX7 / Fold change vs veh, RFX7 / RFU, GTPBP10 / Fold change vs veh, GTPBP10 / RFU, CNEP1R1 / Fold change vs veh, CNEP1R1 / RFU, BIVM-ERCC5 /// ERCC5 / Fold change vs veh, BIVM-ERCC5 /// ERCC5 / RFU, ILF3 / Fold change vs veh, ILF3 / RFU 11762660_at / Fold change /veh 11762660_at / RFU VCAN (11757783_s_at) / Fold change /veh VCAN (11757783_s_at) / RFU DDX43 (11728927_at) / Fold change /veh DDX43 (11728927_at) / RFU KRT8 (11758188_x_at) / Fold change /veh KRT8 (11758188_x_at) / RFU NKD1 (11759106_at) / Fold change /veh NKD1 (11759106_at) / RFU SRD5A1 (11742802_a_at) / Fold change /veh SRD5A1 (11742802_a_at) / RFU TPSAB1 /// TPSB2 (11721975_s_at) / Fold change /veh TPSAB1 /// TPSB2 (11721975_s_at) / RFU GSTM3 (11746129_a_at) / Fold change /veh GSTM3 (11746129_a_at) / RFU IL23R (11737362_x_at) / Fold change /veh IL23R (11737362_x_at) / RFU TMEM51 (11727254_a_at) / Fold change /veh TMEM51 (11727254_a_at) / RFU PIWIL2 (11732686_x_at) / Fold change /veh PIWIL2 (11732686_x_at) / RFU ORM1 (11744905_x_at) / Fold change /veh ORM1 (11744905_x_at) / RFU CCDC152 (11743942_at) / Fold change /veh CCDC152 (11743942_at) / RFU ECM1 (11717891_a_at) / Fold change /veh ECM1 (11717891_a_at) / RFU IL23R (11748794_a_at) / Fold change /veh IL23R (11748794_a_at) / RFU TNFAIP8L3 (11732012_x_at) / Fold change /veh TNFAIP8L3 (11732012_x_at) / RFU MBOAT4 (11741988_at) / Fold change /veh MBOAT4 (11741988_at) / RFU 11764193_at / Fold change /veh 11764193_at / RFU TMEM53 (11763286_at) / Fold change /veh TMEM53 (11763286_at) / RFU MAGEB2 (11727129_at) / Fold change /veh MAGEB2 (11727129_at) / RFU TMEM200A (11744735_a_at) / Fold change /veh TMEM200A (11744735_a_at) / RFU CCDC152 (11751479_a_at) / Fold change /veh CCDC152 (11751479_a_at) / RFU FAM211A (11726209_a_at) / Fold change /veh FAM211A (11726209_a_at) / RFU RGS16 (11746705_a_at) / Fold change /veh RGS16 (11746705_a_at) / RFU VCAN (11755009_s_at) / Fold change /veh VCAN (11755009_s_at) / RFU RHOB (11743442_s_at) / Fold change /veh RHOB (11743442_s_at) / RFU RGS16 (11720943_a_at) / Fold change /veh RGS16 (11720943_a_at) / RFU RGS16 (11720944_at) / Fold change /veh RGS16 (11720944_at) / RFU, VPS4B / Fold change vs veh, VPS4B / RFU, CREB1 / Fold change vs veh, CREB1 / RFU, DNAJC13 / Fold change vs veh, DNAJC13 / RFU, GNAQ / Fold change vs veh, GNAQ / RFU, CDK5R1 / Fold change vs veh, CDK5R1 / RFU, ZRANB3 / Fold change vs veh, ZRANB3 / RFU, CUL4A / Fold change vs veh, CUL4A / RFU, CCNY / Fold change vs veh, CCNY / RFU, UFL1 / Fold change vs veh, UFL1 / RFU, COG3 / Fold change vs veh, COG3 / RFU, DIAPH2 / Fold change vs veh, DIAPH2 / RFU, SKA2 / Fold change vs veh, SKA2 / RFU, AFF3 / Fold change vs veh, AFF3 / RFU, LMF1 / Fold change vs veh, LMF1 / RFU, IPO11 / Fold change vs veh, IPO11 / RFU, DFFB / Fold change vs veh, DFFB / RFU, FOXP1 / Fold change vs veh, FOXP1 / RFU, CARD8 / Fold change vs veh, CARD8 / RFU, STRN3 / Fold change vs veh, STRN3 / RFU, ADK / Fold change vs veh, ADK / RFU, RASSF2 / Fold change vs veh, RASSF2 / RFU, WIPF1 / Fold change vs veh, WIPF1 / RFU, LARP1B / Fold change vs veh, LARP1B / RFU, RASA1 / Fold change vs veh, RASA1 / RFU, RB1 / Fold change vs veh, RB1 / RFU, PPFIA1 / Fold change vs veh, PPFIA1 / RFU, MAT2A / Fold change vs veh, MAT2A / RFU, CCT5 / Fold change vs veh, CCT5 / RFU, WDR92 / Fold change vs veh, WDR92 / RFU, CUX1 / Fold change vs veh, CUX1 / RFU, TTC7A / Fold change vs veh, TTC7A / RFU, TMEM135 / Fold change vs veh, TMEM135 / RFU, DEPTOR / Fold change vs veh, DEPTOR / RFU, CPM / Fold change vs veh, CPM / RFU, DNAJB6 / Fold change vs veh, DNAJB6 / RFU, CACNA2D3 / Fold change vs veh, CACNA2D3 / RFU, DTX4 / Fold change vs veh, DTX4 / RFU, TFCP2 / Fold change vs veh, TFCP2 / RFU, GMCL1 /// GMCL1P1 / Fold change vs veh, GMCL1 /// GMCL1P1 / RFU, AEBP2 / Fold change vs veh, AEBP2 / RFU, SNHG1 /// SNORD22 /// SNORD25 /// SNORD26 /// SNORD27 /// SNORD28 /// SNORD29 /// SNORD31 / Fold change vs veh, SNHG1 /// SNORD22 /// SNORD25 /// SNORD26 /// SNORD27 /// SNORD28 /// SNORD29 /// SNORD31 / Fold change (Aza/veh), C12orf56 (ProbeSet 11735607_a_at) / Fold change (ACY-1035/veh), C12orf56 (ProbeSet 11735607_a_at) / Fold change (Aza/veh), FGFR1OP (ProbeSet 11751329_s_at) / Fold change (ACY-1035/veh), FGFR1OP (ProbeSet 11751329_s_at) / Fold change (Aza/veh), VPS36 (ProbeSet 11739960_a_at) / Fold change (ACY-1035/veh), VPS36 (ProbeSet 11739960_a_at) / RFU SYPL1 (11715823_x_at) / Fold change /veh SYPL1 (11715823_x_at) / RFU IGFBP7 (11715501_s_at) / Fold change /veh IGFBP7 (11715501_s_at) / RFU REEP3 (11722064_at) / Fold change /veh REEP3 (11722064_at) / RFU IGLL1 (11728026_x_at) / Fold change /veh IGLL1 (11728026_x_at): dose or concentration left out as unconfirmed
Details: MV-4-11 cells, 48 hours

Nc1ccc(-c2cccs2)cc1NC(=O)c1ccc2c(c1)cc(C1CC1)n2CCN1CCOCC1 [ACY-1035]
Fold change /veh LOC100653217 /// NTM (11731650_a_at): 0.99
